Test results: the supplement of paper PMC10132981, “Formate overflow drives toxic folate trapping in MTHFD1 inhibited cancer cells” (Nature Metabolism, 2023)

Experiments:
Assay in all cases: EC50 for viability (resazurin, 96 h)
HCT116 = details: RPMI+GlutaMAX (10% FBS, 1% P/S)
PA-TU-8988T = details: DMEM+GlutaMAX (5% dFBS, 1% P/S)
SW620 MTHFD2 -/- = details: RPMI+GlutaMAX (5% dFBS, 1% P/S)
SW620 MTHFD2-/- = details: RPMI+GlutaMAX (5% dFBS, 1% P/S)
SW620 WT = system: SW620 WT
SW620 = system: SW620

Nc1nc(N)c(NC(=O)Nc2cnc(C(=O)N[C@@H](CCc3nnn[nH]3)C(=O)O)c(F)c2)c(=O)[nH]1
Details | EC50 for viability [µM]
HCT116, metabolite supplement: Hypoxanthine | 0.00657
HCT116, metabolite supplement: Vehicle | 0.0131
PA-TU-8988T, metabolite supplement: Thymidine | 0.0016
PA-TU-8988T, metabolite supplement: Vehicle | 0.00131
SW620 MTHFD2 -/-, metabolite supplement: Hypoxanthine | 0.00153
SW620 MTHFD2 -/-, metabolite supplement: Sodium Formate | 0.0125
SW620 MTHFD2 -/-, metabolite supplement: Thymidine | 0.000604
SW620 MTHFD2 -/-, metabolite supplement: Thymidine + Sodium Formate | 0.129
SW620 MTHFD2 -/-, metabolite supplement: Vehicle | 0.000506
SW620 MTHFD2-/-, metabolite supplement: Hypoxanthine + Formate | 0.0158
SW620 MTHFD2-/-, metabolite supplement: Vehicle | 0.000501

Details | EC50 for viability [µM]
SW620 WT, RPMI+GlutaMAX (5% dFBS, 1% P/S), metabolite supplement: Adenine | 0.0153
SW620 WT, RPMI+GlutaMAX (5% dFBS, 1% P/S), metabolite supplement: Adenosine | 0.0166
SW620 WT, RPMI+GlutaMAX (5% dFBS, 1% P/S), metabolite supplement: Guanosine | 0.0199
SW620 WT, RPMI+GlutaMAX (5% dFBS, 1% P/S), metabolite supplement: Hypoxanthine | 0.0141
SW620 WT, RPMI+GlutaMAX (5% dFBS, 1% P/S), metabolite supplement: Hypoxanthine + AICAr 10 µM | 0.0123
SW620 WT, RPMI+GlutaMAX (5% dFBS, 1% P/S), metabolite supplement: Hypoxanthine + AICAr 30 µM | 0.0164
SW620 WT, RPMI+GlutaMAX (5% dFBS, 1% P/S), metabolite supplement: Hypoxanthine + AICAr 50 µM | 0.02
SW620 WT, RPMI+GlutaMAX (5% dFBS, 1% P/S), metabolite supplement: Hypoxanthine + AICAr 100 µM | > 10
SW620 WT, RPMI+GlutaMAX (5% dFBS, 1% P/S, 10 uM Hypoxanthine), metabolite supplement: Thymidine 0.1 uM | 0.0165
SW620 WT, RPMI+GlutaMAX (5% dFBS, 1% P/S, 10 uM Hypoxanthine), metabolite supplement: Thymidine 0.5 uM | 0.0243
SW620 WT, RPMI+GlutaMAX (5% dFBS, 1% P/S, 10 uM Hypoxanthine), metabolite supplement: Thymidine 1uM | 0.0137
SW620 WT, RPMI+GlutaMAX (5% dFBS, 1% P/S, 10 uM Hypoxanthine), metabolite supplement: Thymidine 5uM | > 10
SW620 WT, RPMI+GlutaMAX (5% dFBS, 1% P/S, 10 uM Hypoxanthine), metabolite supplement: Thymidine 10 uM | > 10
SW620 WT, RPMI+GlutaMAX (5% dFBS, 1% P/S, 10 uM Hypoxanthine), metabolite supplement: Thymidine 25 uM | > 10
SW620 WT, RPMI+GlutaMAX (5% dFBS, 1% P/S, 10 uM Hypoxanthine), metabolite supplement: Thymidine 50 uM | > 10
SW620 WT, RPMI+GlutaMAX (5% dFBS, 1% P/S, 10 uM Hypoxanthine), metabolite supplement: Vehicle | 0.0136
SW620 WT, RPMI+GlutaMAX (5% dFBS, 1% P/S, 50 uM Hypoxanthine), metabolite supplement: Thymidine 0.1 uM | 0.0175
SW620 WT, RPMI+GlutaMAX (5% dFBS, 1% P/S, 50 uM Hypoxanthine), metabolite supplement: Thymidine 0.5 uM | 0.0145
SW620 WT, RPMI+GlutaMAX (5% dFBS, 1% P/S, 50 uM Hypoxanthine), metabolite supplement: Thymidine 1uM | 0.0125
SW620 WT, RPMI+GlutaMAX (5% dFBS, 1% P/S, 50 uM Hypoxanthine), metabolite supplement: Thymidine 5uM | > 10
SW620 WT, RPMI+GlutaMAX (5% dFBS, 1% P/S, 50 uM Hypoxanthine), metabolite supplement: Thymidine 10 uM | > 10
SW620 WT, RPMI+GlutaMAX (5% dFBS, 1% P/S, 50 uM Hypoxanthine), metabolite supplement: Thymidine 25 uM | > 10
SW620 WT, RPMI+GlutaMAX (5% dFBS, 1% P/S, 50 uM Hypoxanthine), metabolite supplement: Thymidine 50 uM | > 10
SW620 WT, RPMI+GlutaMAX (5% dFBS, 1% P/S, 50 uM Hypoxanthine), metabolite supplement: Vehicle | 0.013
SW620, HPLM (5% dFBS, 1% P/S), metabolite supplement: Vehicle | 0.0127
SW620, RPMI+GlutaMAX (5% FBS, 1% P/S), metabolite supplement: Vehicle | 0.0134
SW620, RPMI+GlutaMAX (5% dFBS, 1% P/S), metabolite supplement: 50 µM Hypoxanthine | 0.014
SW620, RPMI+GlutaMAX (5% dFBS, 1% P/S), metabolite supplement: Vehicle | 0.0147
SW620, RPMI+GlutaMAX (10% FBS, 1% P/S), metabolite supplement: Folic acid | 0.597
SW620, RPMI+GlutaMAX (10% FBS, 1% P/S), metabolite supplement: Folinic acid | 0.687
SW620, RPMI+GlutaMAX (10% FBS, 1% P/S), metabolite supplement: Hypoxanthine | 0.0104
SW620, RPMI+GlutaMAX (10% FBS, 1% P/S), metabolite supplement: Sodium Formate | 0.0127
SW620, RPMI+GlutaMAX (10% FBS, 1% P/S), metabolite supplement: Thymidine | > 10
SW620, RPMI+GlutaMAX (10% FBS, 1% P/S), metabolite supplement: Thymidine + Folic acid | 1.92
SW620, RPMI+GlutaMAX (10% FBS, 1% P/S), metabolite supplement: Vehicle | 0.00947
